From US8754071B2 (priority 2011, dated 2014)

Molecular target: T1, c-kit (Homo sapiens, UniProt P10721)
T1 construct: human Mo7e cells which endogenously express c-kit; endogenous in cells; host or cells: human Mo7e cells (promegakaryocytic leukemia line), stimulated with human recombinant SCF
Assay: Mo7e cell proliferation assay (SCF dependent proliferation)
Type: cell-based
Conditions: Table 2; human Mo7e cells stimulated with SCF, 48 hours, CellTiter Glo; 1% FBS; read-out: c-kit (Mo7e)
Method in brief: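 Human Mo7e cells with endogenous c-kit, proliferation driven by SCF, 384-well format. After 48 h at 37 °C viability read by CellTiter-Glo luminescence. IC50 taken as concentration giving response halfway between baseline and maximum.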

T1 sequence (P10721 26-976): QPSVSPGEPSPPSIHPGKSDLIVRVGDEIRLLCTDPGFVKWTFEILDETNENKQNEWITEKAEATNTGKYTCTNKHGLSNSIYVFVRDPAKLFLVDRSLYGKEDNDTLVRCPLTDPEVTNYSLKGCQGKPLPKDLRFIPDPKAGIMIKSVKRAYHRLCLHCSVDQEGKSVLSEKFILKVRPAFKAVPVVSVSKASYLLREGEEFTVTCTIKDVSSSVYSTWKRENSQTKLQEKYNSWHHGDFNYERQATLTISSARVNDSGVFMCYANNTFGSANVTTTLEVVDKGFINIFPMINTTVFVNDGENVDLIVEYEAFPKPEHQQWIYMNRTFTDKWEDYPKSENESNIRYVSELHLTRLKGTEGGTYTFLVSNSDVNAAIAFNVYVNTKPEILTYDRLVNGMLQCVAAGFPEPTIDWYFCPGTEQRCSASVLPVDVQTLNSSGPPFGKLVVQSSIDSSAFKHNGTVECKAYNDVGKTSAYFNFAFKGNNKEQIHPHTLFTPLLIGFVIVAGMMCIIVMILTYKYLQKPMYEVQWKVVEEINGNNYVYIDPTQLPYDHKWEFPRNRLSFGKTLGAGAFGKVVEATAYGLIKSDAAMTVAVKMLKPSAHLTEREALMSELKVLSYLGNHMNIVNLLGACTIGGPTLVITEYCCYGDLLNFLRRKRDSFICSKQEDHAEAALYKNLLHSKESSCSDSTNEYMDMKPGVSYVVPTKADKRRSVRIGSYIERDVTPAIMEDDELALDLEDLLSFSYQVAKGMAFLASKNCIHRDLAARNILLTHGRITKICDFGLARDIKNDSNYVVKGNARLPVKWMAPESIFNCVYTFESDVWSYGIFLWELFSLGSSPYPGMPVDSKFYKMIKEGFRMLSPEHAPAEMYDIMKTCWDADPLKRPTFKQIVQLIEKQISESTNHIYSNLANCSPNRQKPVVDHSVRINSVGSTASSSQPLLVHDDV

| IC50 [µM] | Structure (SMILES) |
| --- | --- |
| 1.89 | Cc1ccc(-c2noc(C3CCNCC3)n2)cc1NC(=O)c1cnc2ccccn12 [F290] |
| 1.92 | Cc1ccc(-c2noc(CN3CC(S(C)(=O)=O)C3)n2)cc1NC(=O)c1cnc2ccccn12 [F291] |
| 1.93 | Cc1ccc(-c2noc(CNC(=O)N3CCOCC3)n2)cc1NC(=O)c1cnc2ccccn12 [F292] |
| 2.15 | Cc1ccc2ncc(C(=O)Nc3cc(-c4noc(COC5CNC5)n4)ccc3C)n2c1 [F293] |
| 2.2 | Cc1ccc(-c2nc(N3CC4(COC4)C3)no2)cc1NC(=O)c1cnc2ccccn12 [F294] |
| 2.2 | Cc1ccc(-c2noc(CC3CNC3)n2)cc1NC(=O)c1cnc2ccccn12 [F295] |
| 2.44 | Cc1ccc(-c2noc(C3CCNC3)n2)cc1NC(=O)c1cnc2ccccn12 (stereo not drawn) [F296] |
| 2.79 | Cc1ccc(-c2noc([C@@H]3CCCO3)n2)cc1NC(=O)c1cnc2ccccn12 [F297] |
| 2.86 | Cc1ccc(-c2noc(C3CNC3)n2)cc1NC(=O)c1cnc2ccccn12 [F298] |
| 3.52 | Cc1ccc(-c2noc(C3CN(S(=O)(=O)c4c[nH]cn4)C3)n2)cc1NC(=O)c1cnc2ccccn12 [F299] |
| 3.56 | Cc1ccc(-c2nc(C3CN(C(=O)OC(C)(C)C)C3)no2)cc1NC(=O)c1cnc2ccccn12 [F300] |
| 3.97 | Cc1ccc(-c2noc(C3CN(S(=O)(=O)c4cn(C)cn4)C3)n2)cc1NC(=O)c1cnc2ccccn12 [F301] |
| 4.33 | Cc1ccc(-c2noc([C@H]3C[C@@H](O)CN3)n2)cc1NC(=O)c1cnc2ccc(F)cn12 [F302] |
| 4.64 | Cc1ccc(-c2noc(CCC(=O)N3CCN(C)CC3)n2)cc1NC(=O)c1cnc2ccccn12 [F303] |
| 5.23 | Cc1ccc(-c2noc(CC3CCNC3)n2)cc1NC(=O)c1cnc2ccccn12 (stereo not drawn) [F304] |
| 8.08 | Cc1ccc(-c2noc(C3C[C@@H](O)CN3)n2)cc1NC(=O)c1cnc2ccc(F)cn12 (stereo partly drawn) [F305] |
| 8.37 | Cc1ccc(-c2noc(C3C[C@H](O)CN3)n2)cc1NC(=O)c1cnc2ccc(F)cn12 (stereo partly drawn) [F306] |
| > 10 | COC(=O)N1CC(c2nc(-c3ccc(C)c(NC(=O)c4cnc5ccc(CCC(=O)O)cn45)c3)no2)C1 [F307] |
| > 10 | COC(=O)N1CC(c2nc(-c3ccc(C)c(NC(=O)c4cnc5ccc(CCc6nn[nH]n6)cn45)c3)no2)C1 [F308] |
| > 10 | COC(=O)CS(=O)(=O)N1CC(c2nc(-c3ccc(C)c(NC(=O)c4cnc5ccccn45)c3)no2)C1 [F309] |
| > 10 | COC(=O)N1CC(c2nc(-c3ccc(C)c(NC(=O)c4cnc5ccc(CCCc6nn[nH]n6)cn45)c3)no2)C1 [F310] |
